Source: PubChem BioAssay (NCI)
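Where inhibition never reached the appropriate level, the endpoint shown equals the highest concentration tested. Otherwise, values were interpolated linearly from a five-concentration, 48-hour dose response in 96-well plates. TGI denotes the concentration required for complete inhibition of growth.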

Columns and labels:
Test in all cases: NCI anticancer screen, dose series, 48 h
SF-539 CNS = test system: SF-539 CNS
SK-MEL-2 melanoma = test system: SK-MEL-2 melanoma
SK-OV-3 ovarian = test system: SK-OV-3 ovarian
RXF-631 renal = test system: RXF-631 renal
K-562 leukemia = test system: K-562 leukemia
SW-620 colon = test system: SW-620 colon
NCI-H460 lung = test system: NCI-H460 lung
U251 CNS = test system: U251 CNS
MALME-3M melanoma = test system: MALME-3M melanoma
HCT-116 colon = test system: HCT-116 colon
COLO 205 colon = test system: COLO 205 colon
UACC-62 melanoma = test system: UACC-62 melanoma
OVCAR-8 ovarian = test system: OVCAR-8 ovarian
OVCAR-4 ovarian = test system: OVCAR-4 ovarian
HT29 colon = test system: HT29 colon
OVCAR-3 ovarian = test system: OVCAR-3 ovarian
M14 melanoma = test system: M14 melanoma
HL-60(TB) leukemia = test system: HL-60(TB) leukemia
LXFL 529 NSCLC = test system: LXFL 529 NSCLC
SNB-19 CNS = test system: SNB-19 CNS
LOX IMVI melanoma = test system: LOX IMVI melanoma
CAKI-1 renal = test system: CAKI-1 renal
ACHN renal = test system: ACHN renal
786-0 renal = test system: 786-0 renal
IGROV1 ovarian = test system: IGROV1 ovarian
RPMI-8226 leukemia = test system: RPMI-8226 leukemia
SK-MEL-28 melanoma = test system: SK-MEL-28 melanoma
UO-31 renal = test system: UO-31 renal
RXF 393 renal = test system: RXF 393 renal
SF-268 CNS = test system: SF-268 CNS
EKVX NSCLC = test system: EKVX NSCLC
SNB-78 CNS = test system: SNB-78 CNS
A549 NSCLC = test system: A549 NSCLC
NCI-H226 lung = test system: NCI-H226 lung
SF-295 CNS = test system: SF-295 CNS
SNB-75 CNS = test system: SNB-75 CNS
SN12C renal = test system: SN12C renal
NCI-H23 lung = test system: NCI-H23 lung
DMS 273 small cell lung = test system: DMS 273 small cell lung
HOP-92 NSCLC = test system: HOP-92 NSCLC
DLD-1 colon = test system: DLD-1 colon
KM12 colon = test system: KM12 colon
OVCAR-5 ovarian = test system: OVCAR-5 ovarian
CCRF-CEM leukemia = test system: CCRF-CEM leukemia
NCI-H522 lung = test system: NCI-H522 lung
HOP-62 NSCLC = test system: HOP-62 NSCLC
MOLT-4 leukemia = test system: MOLT-4 leukemia
SK-MEL-5 melanoma = test system: SK-MEL-5 melanoma
HCC-2998 colon = test system: HCC-2998 colon
TK-10 renal = test system: TK-10 renal
M19-MEL melanoma = test system: M19-MEL melanoma
A498 renal = test system: A498 renal
UACC-257 melanoma = test system: UACC-257 melanoma
DMS 114 small cell lung = test system: DMS 114 small cell lung
HCT-15 colon = test system: HCT-15 colon
KM20L2 colon = test system: KM20L2 colon
XF 498 CNS = test system: XF 498 CNS
SR leukemia = test system: SR leukemia
HOP-18 NSCLC = test system: HOP-18 NSCLC

COC(=O)C1(C(=O)OC)CC2c3c(c4ccccc4n3C)CC(C1=O)N2Cc1ccccc1 (stereo unspecified)
TGI (SF-539 CNS): > 100 µM | TGI (SK-MEL-2 melanoma): > 100 µM | TGI (SK-OV-3 ovarian): > 100 µM | TGI (RXF-631 renal): > 100 µM | TGI (K-562 leukemia): > 100 µM | TGI (SW-620 colon): > 100 µM | TGI (NCI-H460 lung): > 100 µM | TGI (U251 CNS): > 100 µM | TGI (MALME-3M melanoma): > 100 µM | TGI (HCT-116 colon): > 100 µM | TGI (COLO 205 colon): > 100 µM | TGI (UACC-62 melanoma): > 100 µM | TGI (OVCAR-8 ovarian): > 100 µM | TGI (OVCAR-4 ovarian): > 100 µM | TGI (HT29 colon): > 100 µM | TGI (OVCAR-3 ovarian): > 100 µM | TGI (M14 melanoma): > 100 µM | TGI (HL-60(TB) leukemia): > 100 µM | TGI (LXFL 529 NSCLC): > 100 µM | TGI (SNB-19 CNS): > 100 µM | TGI (LOX IMVI melanoma): > 100 µM | TGI (CAKI-1 renal): > 100 µM | TGI (ACHN renal): > 100 µM | TGI (786-0 renal): > 100 µM | TGI (IGROV1 ovarian): > 100 µM | TGI (RPMI-8226 leukemia): > 100 µM | TGI (SK-MEL-28 melanoma): > 100 µM | TGI (UO-31 renal): > 100 µM | TGI (RXF 393 renal): > 100 µM | TGI (SF-268 CNS): > 100 µM | TGI (EKVX NSCLC): > 100 µM | TGI (SNB-78 CNS): > 100 µM | TGI (A549 NSCLC): > 100 µM | TGI (NCI-H226 lung): > 100 µM | TGI (SF-295 CNS): > 100 µM | TGI (SNB-75 CNS): 92 µM | TGI (SN12C renal): > 100 µM | TGI (NCI-H23 lung): > 100 µM | TGI (DMS 273 small cell lung): > 100 µM | TGI (HOP-92 NSCLC): > 100 µM | TGI (DLD-1 colon): > 100 µM | TGI (KM12 colon): > 100 µM | TGI (OVCAR-5 ovarian): > 100 µM | TGI (CCRF-CEM leukemia): > 100 µM | TGI (NCI-H522 lung): > 100 µM | TGI (HOP-62 NSCLC): > 100 µM | TGI (MOLT-4 leukemia): > 100 µM | TGI (SK-MEL-5 melanoma): > 100 µM | TGI (HCC-2998 colon): > 100 µM | TGI (TK-10 renal): > 100 µM | TGI (M19-MEL melanoma): > 100 µM | TGI (A498 renal): > 100 µM | TGI (UACC-257 melanoma): > 100 µM | TGI (DMS 114 small cell lung): > 100 µM | TGI (HCT-15 colon): > 100 µM | TGI (KM20L2 colon): > 100 µM | TGI (XF 498 CNS): > 100 µM

C=C[C@]1(C)CCC2=C(CCC3C2(C)CCC[C@]3(C)CO)C1 (stereo partly specified)
TGI (SF-539 CNS): > 100 µM | TGI (SK-MEL-2 melanoma): > 100 µM | TGI (SK-OV-3 ovarian): > 100 µM | TGI (RXF-631 renal): > 100 µM | TGI (K-562 leukemia): > 100 µM | TGI (SW-620 colon): > 100 µM | TGI (NCI-H460 lung): > 100 µM | TGI (U251 CNS): 63.8 µM | TGI (MALME-3M melanoma): > 100 µM | TGI (HCT-116 colon): > 100 µM | TGI (COLO 205 colon): > 100 µM | TGI (UACC-62 melanoma): > 100 µM | TGI (OVCAR-8 ovarian): > 100 µM | TGI (SR leukemia): > 100 µM | TGI (OVCAR-4 ovarian): > 100 µM | TGI (HT29 colon): 48 µM | TGI (OVCAR-3 ovarian): > 100 µM | TGI (M14 melanoma): > 100 µM | TGI (HL-60(TB) leukemia): 52.2 µM | TGI (LXFL 529 NSCLC): > 100 µM | TGI (SNB-19 CNS): > 100 µM | TGI (LOX IMVI melanoma): 68 µM | TGI (CAKI-1 renal): > 100 µM | TGI (ACHN renal): > 100 µM | TGI (786-0 renal): > 100 µM | TGI (IGROV1 ovarian): > 100 µM | TGI (RPMI-8226 leukemia): > 100 µM | TGI (SK-MEL-28 melanoma): > 100 µM | TGI (UO-31 renal): > 100 µM | TGI (RXF 393 renal): 84.4 µM | TGI (SF-268 CNS): > 100 µM | TGI (EKVX NSCLC): > 100 µM | TGI (SNB-78 CNS): > 100 µM | TGI (A549 NSCLC): > 100 µM | TGI (NCI-H226 lung): > 100 µM | TGI (SF-295 CNS): > 100 µM | TGI (SNB-75 CNS): > 100 µM | TGI (SN12C renal): 43.6 µM | TGI (NCI-H23 lung): > 100 µM | TGI (DMS 273 small cell lung): > 100 µM | TGI (HOP-92 NSCLC): > 100 µM | TGI (DLD-1 colon): > 100 µM | TGI (KM12 colon): > 100 µM | TGI (HOP-18 NSCLC): > 100 µM | TGI (OVCAR-5 ovarian): > 100 µM | TGI (CCRF-CEM leukemia): > 100 µM | TGI (NCI-H522 lung): 52.5 µM | TGI (HOP-62 NSCLC): > 100 µM | TGI (MOLT-4 leukemia): 84.9 µM | TGI (SK-MEL-5 melanoma): > 100 µM | TGI (HCC-2998 colon): > 100 µM | TGI (TK-10 renal): > 100 µM | TGI (M19-MEL melanoma): > 100 µM | TGI (A498 renal): > 100 µM | TGI (UACC-257 melanoma): > 100 µM | TGI (DMS 114 small cell lung): 74.6 µM | TGI (HCT-15 colon): > 100 µM | TGI (KM20L2 colon): 42.3 µM | TGI (XF 498 CNS): > 100 µM

COC(=O)C(C(=O)C(=O)NC1=C(Cl)C(=O)c2ccccc2C1=O)c1csc(-n2nc(-c3ccccc3)cc2-c2ccccc2)n1 (stereo unspecified)
TGI (SK-OV-3 ovarian): > 100 µM | TGI (RXF-631 renal): > 100 µM | TGI (K-562 leukemia): > 100 µM | TGI (SW-620 colon): > 100 µM | TGI (NCI-H460 lung): > 100 µM | TGI (U251 CNS): > 100 µM | TGI (MALME-3M melanoma): > 100 µM | TGI (HCT-116 colon): > 100 µM | TGI (COLO 205 colon): > 100 µM | TGI (UACC-62 melanoma): > 100 µM | TGI (OVCAR-8 ovarian): > 100 µM | TGI (SR leukemia): > 100 µM | TGI (OVCAR-4 ovarian): > 100 µM | TGI (HT29 colon): > 100 µM | TGI (OVCAR-3 ovarian): > 100 µM | TGI (M14 melanoma): > 100 µM | TGI (HL-60(TB) leukemia): > 100 µM | TGI (LXFL 529 NSCLC): > 100 µM | TGI (SNB-19 CNS): > 100 µM | TGI (LOX IMVI melanoma): > 100 µM | TGI (CAKI-1 renal): > 100 µM | TGI (ACHN renal): > 100 µM | TGI (786-0 renal): > 100 µM | TGI (IGROV1 ovarian): > 100 µM | TGI (RPMI-8226 leukemia): > 100 µM | TGI (UO-31 renal): > 100 µM | TGI (RXF 393 renal): > 100 µM | TGI (SF-268 CNS): > 100 µM | TGI (EKVX NSCLC): > 100 µM | TGI (SNB-78 CNS): > 100 µM | TGI (A549 NSCLC): > 100 µM | TGI (NCI-H226 lung): > 100 µM | TGI (SF-295 CNS): > 100 µM | TGI (SNB-75 CNS): 9.4 µM | TGI (SN12C renal): > 100 µM | TGI (NCI-H23 lung): > 100 µM | TGI (DMS 273 small cell lung): > 100 µM | TGI (HOP-92 NSCLC): > 100 µM | TGI (DLD-1 colon): > 100 µM | TGI (KM12 colon): > 100 µM | TGI (HOP-18 NSCLC): > 100 µM | TGI (OVCAR-5 ovarian): > 100 µM | TGI (CCRF-CEM leukemia): > 100 µM | TGI (NCI-H522 lung): > 100 µM | TGI (HOP-62 NSCLC): > 100 µM | TGI (MOLT-4 leukemia): > 100 µM | TGI (HCC-2998 colon): > 100 µM | TGI (TK-10 renal): > 100 µM | TGI (M19-MEL melanoma): > 100 µM | TGI (A498 renal): > 100 µM | TGI (UACC-257 melanoma): > 100 µM | TGI (DMS 114 small cell lung): > 100 µM | TGI (HCT-15 colon): > 100 µM | TGI (KM20L2 colon): > 100 µM | TGI (XF 498 CNS): > 100 µM
